Laboratory results from article PMC11631053, “A receptor-based assay to study the sweet and bitter tastes of sweeteners and binary sweet blends: the SWEET project” (Chemical Senses, 2024).
Like-named read-outs stand apart in the source and are kept apart here.

Assays:
TAS2R9 = target: T1, TAS2R9 (Homo sapiens, UniProt Q9NYW1); assay: Calcium mobilization assay, HEK293T-Gα16gust44 cells expressing TAS2R9; details: maximal concentration tested: sucralose 100 mM, neotame 30 µM, Ace-K 300 mM, RebA 4 mM, RebM 4 mM, mogroside V 5 mM, erythritol 200 mM, D-allulose 500 mM, thaumatin 100 mM
T1 sequence (Q9NYW1 1-312): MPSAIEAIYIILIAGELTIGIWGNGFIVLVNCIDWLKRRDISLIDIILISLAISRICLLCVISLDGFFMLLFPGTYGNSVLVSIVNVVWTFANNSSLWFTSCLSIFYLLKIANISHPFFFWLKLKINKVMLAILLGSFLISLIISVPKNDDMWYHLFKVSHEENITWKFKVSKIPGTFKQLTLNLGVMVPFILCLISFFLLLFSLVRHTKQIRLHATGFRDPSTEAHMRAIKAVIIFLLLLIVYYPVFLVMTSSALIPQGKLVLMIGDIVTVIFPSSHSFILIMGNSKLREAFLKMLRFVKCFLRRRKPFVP
Method: (§1) Different concentration ranges were tested depending on the injected sweet compound. […] All of the concentration-receptor combinations were measured in triplicate, and each experiment was repeated at least 3 times. The Ca^2+ change was expressed as a fractional change in fluorescent light intensity: ΔF/F = (F − F0)/F0, where F was the fluorescent light intensity at each point, and F0 was the value of fluorescent light emitted prior to stimulus application. To calculate dose–response relationships, the changes in fluorescence upon stimulus application were averaged, mock-subtracted and baseline-corrected. The resulting obtained dose–response data were adjusted by using a 4-parameter logistic equation. The half-maximal effective concentration (EC50) was calculated by using SigmaPlot software (Systat Software, San Jose, CA, USA) as described in supplemental Supplementary Figs. S1, S2, and S3.

TAS2R42 = target: T2, TAS2R42 (Homo sapiens, UniProt Q7RTR8); assay: Calcium mobilization assay, HEK293T-Gα16gust44 cells expressing TAS2R42; details: maximal concentration tested: sucralose 100 mM, neotame 30 µM, Ace-K 300 mM, RebA 4 mM, RebM 4 mM, mogroside V 5 mM, erythritol 200 mM, D-allulose 500 mM, thaumatin 100 mM
T2 sequence (Q7RTR8 1-314): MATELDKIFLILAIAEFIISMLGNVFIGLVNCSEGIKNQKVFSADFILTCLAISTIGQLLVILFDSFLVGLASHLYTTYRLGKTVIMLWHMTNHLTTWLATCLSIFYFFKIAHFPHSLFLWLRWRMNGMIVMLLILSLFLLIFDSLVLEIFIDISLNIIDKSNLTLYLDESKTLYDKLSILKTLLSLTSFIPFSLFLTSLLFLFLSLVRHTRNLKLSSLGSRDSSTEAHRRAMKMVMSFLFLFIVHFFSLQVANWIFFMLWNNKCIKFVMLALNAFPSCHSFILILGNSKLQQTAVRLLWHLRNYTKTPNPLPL
Method: as §1

25 human TAS2Rs = assay: Screen of the 25 human TAS2Rs, calcium mobilization in HEK293T-Gα16gust44 cells; assay type: cell-based; details: for number of TAS2Rs activated: of the 25 human TAS2Rs; for activation of any TAS2Rs: at the maximal tested concentration (Table 4)
Method: The activation of the 25 human TAS2Rs by the 9 selected sweeteners (excluding sucrose) was examined by using HEK293T-Gα16gust44 cells. Cellular responses were measured after cell stimulation with various concentrations of the sweeteners.

TAS1R2/TAS1R3 = target: T3, TAS1R2/TAS1R3 (Homo sapiens, UniProt Q7RTX0+Q8TE23); assay: Calcium mobilization assay, HEK293T-Gα16gust44 cells expressing the sweet taste receptor
T3 sequence (Q8TE23 20-839): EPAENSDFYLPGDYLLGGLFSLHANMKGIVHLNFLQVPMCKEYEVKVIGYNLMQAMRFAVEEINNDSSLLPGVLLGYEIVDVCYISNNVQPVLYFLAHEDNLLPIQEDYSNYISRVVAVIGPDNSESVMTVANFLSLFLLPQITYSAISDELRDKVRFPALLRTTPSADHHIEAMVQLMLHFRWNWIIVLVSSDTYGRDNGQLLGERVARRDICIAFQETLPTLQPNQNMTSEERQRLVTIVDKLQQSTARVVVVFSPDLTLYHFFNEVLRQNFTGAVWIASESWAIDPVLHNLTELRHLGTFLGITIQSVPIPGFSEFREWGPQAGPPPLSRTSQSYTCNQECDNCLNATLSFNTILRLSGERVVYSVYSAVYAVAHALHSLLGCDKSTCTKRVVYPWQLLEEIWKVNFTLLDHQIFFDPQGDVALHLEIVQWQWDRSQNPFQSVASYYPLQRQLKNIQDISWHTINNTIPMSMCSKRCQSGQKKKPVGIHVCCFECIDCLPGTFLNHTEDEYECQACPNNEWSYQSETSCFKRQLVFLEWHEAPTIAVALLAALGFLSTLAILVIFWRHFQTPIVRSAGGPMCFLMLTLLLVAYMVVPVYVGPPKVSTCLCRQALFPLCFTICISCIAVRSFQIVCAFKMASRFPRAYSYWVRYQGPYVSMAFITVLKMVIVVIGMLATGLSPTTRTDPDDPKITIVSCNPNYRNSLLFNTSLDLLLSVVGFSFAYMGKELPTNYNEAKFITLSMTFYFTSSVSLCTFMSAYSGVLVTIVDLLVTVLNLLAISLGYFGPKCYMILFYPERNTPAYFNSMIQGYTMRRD
T3 sequence (Q7RTX0 21-852): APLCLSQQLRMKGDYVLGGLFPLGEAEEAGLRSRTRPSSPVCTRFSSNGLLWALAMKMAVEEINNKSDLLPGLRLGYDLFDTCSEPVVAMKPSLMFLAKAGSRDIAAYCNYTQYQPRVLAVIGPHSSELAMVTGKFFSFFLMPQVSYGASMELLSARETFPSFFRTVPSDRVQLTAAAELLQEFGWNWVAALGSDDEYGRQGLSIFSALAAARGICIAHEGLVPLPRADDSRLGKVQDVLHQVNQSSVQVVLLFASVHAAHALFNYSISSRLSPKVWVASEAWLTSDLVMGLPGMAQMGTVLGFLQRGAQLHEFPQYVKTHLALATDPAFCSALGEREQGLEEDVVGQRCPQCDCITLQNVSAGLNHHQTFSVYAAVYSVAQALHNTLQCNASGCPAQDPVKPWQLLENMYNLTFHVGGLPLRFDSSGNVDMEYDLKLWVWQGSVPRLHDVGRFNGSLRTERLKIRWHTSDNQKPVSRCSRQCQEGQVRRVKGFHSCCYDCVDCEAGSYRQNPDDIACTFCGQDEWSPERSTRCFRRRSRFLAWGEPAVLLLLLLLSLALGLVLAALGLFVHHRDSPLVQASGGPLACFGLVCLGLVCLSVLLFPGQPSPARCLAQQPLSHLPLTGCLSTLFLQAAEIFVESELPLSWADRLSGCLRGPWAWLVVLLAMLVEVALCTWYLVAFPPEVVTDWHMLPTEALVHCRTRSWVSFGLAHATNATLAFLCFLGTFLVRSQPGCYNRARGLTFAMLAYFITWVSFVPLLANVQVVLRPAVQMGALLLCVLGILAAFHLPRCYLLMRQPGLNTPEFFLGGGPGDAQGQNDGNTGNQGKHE
Method: Different concentration ranges were tested depending on the injected sweet compound. […] All of the concentration-receptor combinations were measured in triplicate, and each experiment was repeated at least 3 times. The Ca^2+ change was expressed as a fractional change in fluorescent light intensity: ΔF/F = (F − F0)/F0, where F was the fluorescent light intensity at each point, and F0 was the value of fluorescent light emitted prior to stimulus application. To calculate dose–response relationships, the changes in fluorescence upon stimulus application were averaged, mock-subtracted and baseline-corrected. The resulting obtained dose–response data were adjusted by using a 4-parameter logistic equation.

[1] = maximal signal amplitude, sweet compound alone
[2] = RebM in the presence of mogroside V 0 µM
[3] = read-out: EC50 value, sweet compound alone
[4] = mogroside V in the presence of thaumatin 0 µM
[5] = neotame in the presence of D-allulose 0 mM

Compound	Response of TAS2R9 (TAS2R9)	Response of TAS2R42 (TAS2R42)	Max ΔF/F0 (TAS1R2/TAS1R3; [1])	EC50 (TAS1R2/TAS1R3; [3]) [µM]	number of TAS2Rs activated (25 human TAS2Rs)	activation of any TAS2Rs (25 human TAS2Rs)	further results
O=C(CO)[C@H](O)[C@H](O)[C@H](O)CO [D-allulose]	−	+	0.50 ± 0.12		7		activation of the sweet taste receptor by the compound alone (TAS1R2/TAS1R3; 3 to 30 mM): did not activate the sweet taste receptor
C[C@H](CC[C@@H](O[C@@H]1O[C@H](CO[C@@H]2O[C@H](CO)[C@@H](O)[C@H](O)[C@H]2O)[C@@H](O)[C@H](O)[C@H]1O[C@@H]1O[C@H](CO)[C@@H](O)[C@H](O)[C@H]1O)C(C)(C)O)[C@H]1CC[C@@]2(C)[C@@H]3CC=C4[C@@H](CC[C@H](O[C@@H]5O[C@H](CO[C@@H]6O[C@H](CO)[C@@H](O)[C@H](O)[C@H]6O)[C@@H](O)[C@H](O)[C@H]5O)C4(C)C)[C@]3(C)[C@H](O)C[C@]12C [Mogroside V, mogroside V]	−	−	0.14 ± 0.01	23 ± 2	2		concentration of saturation of the sweet taste receptor (TAS1R2/TAS1R3): ~500 µM; decrease in the EC50 values (TAS1R2/TAS1R3; in the presence of thaumatin 0.3 to 10 µM): 3 fold; decrease in the EC50 value (TAS1R2/TAS1R3; mogroside V in the presence of 10 µM thaumatin): 4 fold; EC50 (TAS1R2/TAS1R3; [4]): 29 ± 4 µM; Max ΔF/F0 (TAS1R2/TAS1R3; [4]): 0.14 ± 0.01; Max ΔF/F0 (TAS1R2/TAS1R3; mogroside V in the presence of thaumatin 0.03 µM): 0.19 ± 0.01; Max ΔF/F0 (TAS1R2/TAS1R3; mogroside V in the presence of thaumatin 1 µM): 0.18 ± 0.04; Max ΔF/F0 (TAS1R2/TAS1R3; mogroside V in the presence of thaumatin 3 µM): 0.18 ± 0.01; Max ΔF/F0 (TAS1R2/TAS1R3; mogroside V in the presence of thaumatin 10 µM): 0.17 ± 0.01
OC[C@@H](O)[C@@H](O)CO [Erythritol, erythritol]	−	−	0.06 ± 0.01			Neither neotame, RebM, erythritol, or thaumatin activated any TAS2Rs	EC50 (TAS1R2/TAS1R3): 56000 ± 10000 µM
COC(=O)[C@H](Cc1ccccc1)NC(=O)[C@H](CC(=O)O)NCCC(C)(C)C [Neotame]	−	−	0.16 ± 0.01	2.26 ± 0.23		Neither neotame, RebM, erythritol, or thaumatin activated any TAS2Rs	EC50 (TAS1R2/TAS1R3; [5]): 2.37 ± 0.34 µM; Max ΔF/F0 (TAS1R2/TAS1R3; [5]): 0.16 ± 0.01; Max ΔF/F0 (TAS1R2/TAS1R3; neotame in the presence of D-allulose 3 mM): 0.17 ± 0.01; Max ΔF/F0 (TAS1R2/TAS1R3; neotame in the presence of D-allulose 10 mM): 0.21 ± 0.01; Max ΔF/F0 (TAS1R2/TAS1R3; neotame in the presence of D-allulose 30 mM): 0.17 ± 0.00; increase in sweetness potency (TAS1R2/TAS1R3; neotame with addition of D-allulose (3 to 30 mM), leftward shift of dose–response curves): approximately 2.5 fold
CC1=CC(=O)NS(=O)(=O)O1 [Ace-K, acesulfame-K]	−	−					EC50 (TAS1R2/TAS1R3): 410 ± 94 µM

Continued, in another order:

Response of TAS2R9 (TAS2R9)	Response of TAS2R42 (TAS2R42)	Max ΔF/F0 (TAS1R2/TAS1R3; [1])	EC50 (TAS1R2/TAS1R3; [3]) [µM]	Compound	number of TAS2Rs activated (25 human TAS2Rs)	activation of any TAS2Rs (25 human TAS2Rs)	further results
−	−	0.16 ± 0.01	34 ± 2	C=C1C[C@@]23CC[C@H]4[C@@](C)(CCC[C@@]4(C)C(=O)O[C@@H]4O[C@H](CO)[C@@H](O)[C@H](O[C@@H]5O[C@H](CO)[C@@H](O)[C@H](O)[C@H]5O)[C@H]4O[C@@H]4O[C@H](CO)[C@@H](O)[C@H](O)[C@H]4O)[C@@H]2CC[C@]1(O[C@@H]1O[C@H](CO)[C@@H](O)[C@H](O[C@@H]2O[C@H](CO)[C@@H](O)[C@H](O)[C@H]2O)[C@H]1O[C@@H]1O[C@H](CO)[C@@H](O)[C@H](O)[C@H]1O)C3 [RebM, Rebaudioside M]		Neither neotame, RebM, erythritol, or thaumatin activated any TAS2Rs	EC50 (TAS1R2/TAS1R3; [2]): 36 ± 2 µM; Max ΔF/F0 (TAS1R2/TAS1R3; [2]): 0.17 ± 0.01; Max ΔF/F0 (TAS1R2/TAS1R3; RebM in the presence of mogroside V 0.03 µM): 0.16 ± 0.01; Max ΔF/F0 (TAS1R2/TAS1R3; RebM in the presence of mogroside V 1 µM): 0.18 ± 0.01; Max ΔF/F0 (TAS1R2/TAS1R3; RebM in the presence of mogroside V 3 µM): 0.17 ± 0.01; Max ΔF/F0 (TAS1R2/TAS1R3; RebM in the presence of mogroside V 5 µM): 0.12 ± 0.01; Max ΔF/F0 (TAS1R2/TAS1R3; RebM in the presence of mogroside V 10 µM): 0.12 ± 0.01
−	−	0.12 ± 0.01		thaumatin		Neither neotame, RebM, erythritol, or thaumatin activated any TAS2Rs	activation of the sweet taste receptor by the compound alone (TAS1R2/TAS1R3; concentrations less than 3 µM): unable to activate the sweet taste receptor on its own
−	−	0.13 ± 0.01	78 ± 11	OC[C@H]1O[C@H](O[C@]2(CCl)O[C@H](CCl)[C@@H](O)[C@@H]2O)[C@H](O)[C@@H](O)[C@H]1Cl [Sucralose, sucralose]	3		concentration at which maximal signal amplitude is reached (TAS1R2/TAS1R3): below 1 mM; Max ΔF/F0 (TAS1R2/TAS1R3; sucralose in the presence of Ace-K 0 µM): 0.13 ± 0.01; Max ΔF/F0 (TAS1R2/TAS1R3; sucralose in the presence of Ace-K 10 µM): 0.15 ± 0.01; Max ΔF/F0 (TAS1R2/TAS1R3; sucralose in the presence of Ace-K 30 µM): 0.12 ± 0.01; Max ΔF/F0 (TAS1R2/TAS1R3; sucralose in the presence of Ace-K 100 µM): 0.14 ± 0.01
